Among the data in patent US20210070748A1, “INHIBITORS OF BRUTONS TYROSINE KINASE” (Pharmacyclics LLC, priority 2015, published 2021) are IC50 values, retold here.

Format in all cases: biochemical
For experiment [1], the target named is T1, BTK-WT (Homo sapiens, UniProt Q06187).
T1 construct: purified from insect cells as a full-length construct containing an N-terminal 6X-His tag; His6 (N); made in house; host or cells: insect cells (baculovirus Sf21 in Method B)
In words: Btk in vitro inhibitory activity (one of Method A TR-FRET, Method B electrophoretic mobility shift, Method C radiometric filter binding). The conditions noted are these: D-compounds panel data; read-out: IC50 BTK-WT. A general note: Mobility shift assays separate free from complexed probe on a gel.

Experiment [2] has as its target SRC (Homo sapiens, UniProt P12931). In words: Inhibition of a panel of kinases, in vitro HotSpot kinase assay: SRC. The conditions noted are these: D-compounds panel data; 1 μM ATP. As for the experimental part:
(§1) The degree of inhibition of a panel of kinases is determined using the in vitro HotSpot kinase assay (purified enzymes, ^33P-ATP, an appropriate substrate and 1 μM ATP).

For experiment [3], the target named is T2, TEC (Homo sapiens, UniProt P42680).
T2 sequence (P42680 1-631): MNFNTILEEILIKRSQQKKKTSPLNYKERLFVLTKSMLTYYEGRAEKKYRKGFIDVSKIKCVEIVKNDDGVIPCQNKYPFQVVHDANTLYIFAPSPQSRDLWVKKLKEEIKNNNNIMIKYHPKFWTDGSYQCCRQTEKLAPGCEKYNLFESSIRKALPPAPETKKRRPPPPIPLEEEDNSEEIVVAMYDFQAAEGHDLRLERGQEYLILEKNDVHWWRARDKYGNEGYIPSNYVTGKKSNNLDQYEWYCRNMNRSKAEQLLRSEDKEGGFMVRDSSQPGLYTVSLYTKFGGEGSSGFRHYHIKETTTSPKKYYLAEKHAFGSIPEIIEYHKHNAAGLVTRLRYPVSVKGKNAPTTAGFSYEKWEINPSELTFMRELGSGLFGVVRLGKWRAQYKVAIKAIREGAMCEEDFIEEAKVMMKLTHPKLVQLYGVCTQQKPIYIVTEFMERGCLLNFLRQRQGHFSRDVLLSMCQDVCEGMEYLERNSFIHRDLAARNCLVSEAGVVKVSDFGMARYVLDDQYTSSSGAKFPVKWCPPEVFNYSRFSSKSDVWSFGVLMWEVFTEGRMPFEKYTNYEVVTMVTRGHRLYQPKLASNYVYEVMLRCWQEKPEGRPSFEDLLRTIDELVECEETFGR
In words: Inhibition of a panel of kinases, in vitro HotSpot kinase assay: TEC. The conditions noted are these: D-compounds panel data; 1 μM ATP. As for the experimental part:
as §1

As a reminder, the IC50 is the concentration needed to halve the response being measured.

T1 sequence (Q06187 whole entry): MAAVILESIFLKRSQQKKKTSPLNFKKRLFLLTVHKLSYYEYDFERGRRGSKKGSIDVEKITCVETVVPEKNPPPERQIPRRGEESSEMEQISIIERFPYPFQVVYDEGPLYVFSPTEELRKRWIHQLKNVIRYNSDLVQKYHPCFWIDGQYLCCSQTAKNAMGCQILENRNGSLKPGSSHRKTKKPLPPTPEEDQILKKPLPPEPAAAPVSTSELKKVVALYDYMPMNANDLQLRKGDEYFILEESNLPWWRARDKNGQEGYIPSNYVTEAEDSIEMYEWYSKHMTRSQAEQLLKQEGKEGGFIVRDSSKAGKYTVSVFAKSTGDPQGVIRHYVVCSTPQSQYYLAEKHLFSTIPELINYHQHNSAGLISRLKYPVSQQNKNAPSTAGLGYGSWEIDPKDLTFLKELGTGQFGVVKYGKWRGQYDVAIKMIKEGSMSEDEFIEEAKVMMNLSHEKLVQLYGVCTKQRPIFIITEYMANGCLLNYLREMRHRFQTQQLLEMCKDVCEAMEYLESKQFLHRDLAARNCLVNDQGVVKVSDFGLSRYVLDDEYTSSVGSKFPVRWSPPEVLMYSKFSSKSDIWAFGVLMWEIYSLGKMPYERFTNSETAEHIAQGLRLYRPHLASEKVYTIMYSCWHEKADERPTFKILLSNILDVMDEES
Sequence of SRC (P12931 whole entry): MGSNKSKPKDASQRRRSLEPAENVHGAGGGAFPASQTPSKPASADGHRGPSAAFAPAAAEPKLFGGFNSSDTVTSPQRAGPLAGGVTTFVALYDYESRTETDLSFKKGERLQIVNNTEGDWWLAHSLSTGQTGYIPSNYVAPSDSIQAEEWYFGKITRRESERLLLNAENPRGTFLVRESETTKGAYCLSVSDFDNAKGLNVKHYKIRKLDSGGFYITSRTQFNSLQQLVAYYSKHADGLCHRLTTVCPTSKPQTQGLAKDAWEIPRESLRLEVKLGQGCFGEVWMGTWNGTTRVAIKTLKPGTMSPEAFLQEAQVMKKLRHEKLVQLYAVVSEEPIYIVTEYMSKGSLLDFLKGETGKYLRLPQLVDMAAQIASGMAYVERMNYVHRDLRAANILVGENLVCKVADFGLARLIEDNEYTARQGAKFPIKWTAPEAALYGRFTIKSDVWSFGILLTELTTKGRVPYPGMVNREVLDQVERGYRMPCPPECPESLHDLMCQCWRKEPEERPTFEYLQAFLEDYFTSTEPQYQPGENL

Turning to `C[C@@H]1[C@H](N2Cc3cc(C4CC4)ccc3C2=O)CCCN1c1cnc(C(N)=O)c(Nc2cnn(C)c2)n1` [Example D-36, 5-[(2R,3R)-3-(5-cyclopropyl-1-oxo-2,3-dihydro-1H-isoindol-2-yl)-2-methylpiperidin-1-yl]-3-[(1-methyl-1H-pyrazol-4-yl)amino]pyrazine-2-carboxamide], the IC50 is at most 10 nM in experiment [1], 100 to 1000 nM in experiment [2] and at most 10 nM in experiment [3].
Consider `C[C@@H]1[C@H](NC(=O)c2ccc(C(C)(C)O)nc2)CCCN1c1cnc(C(N)=O)c(Nc2cnn(C)c2)n1` [Example D-40, 5-[(2R,3R)-3-[6-(2-hydroxypropan-2-yl)pyridine-3-amido]-2-methylpiperidin-1-yl]-3-[(1-methyl-1H-pyrazol-4-yl)amino]pyrazine-2-carboxamide], for which the IC50 is at most 10 nM in experiment [1], 10 to 100 nM in experiment [2] and at most 10 nM in experiment [3].
